Assay results reported in patent publication US7807679B2, “Piperazine derivatives and their use in controlling pests” (Syngenta Crop Protection, Inc., priority 2004, dated 2010).

Key:
Type in all cases: in vivo
[1] = test system: Heliothis virescens (Tobacco Budworm); assay: Heliothis virescens egg test on artificial diet; details: 96 h, 200 ppm by pipetting, eggs (0-24 h old) on artificial diet, egg mortality, larval mortality, growth regulation after 4 days
Method: Eggs (0-24 h old) were placed in 24-well microtiter plate on artificial diet and treated with test solutions at an application rate of 200 ppm by pipetting. After an incubation period of 4 days, samples were checked for egg mortality, larval mortality, and growth regulation. The following compounds gave at least 80% control of Heliothis virescen: • I-3, I-6, I-7, I-26, I-29, I-30, I-47, I-49, I-52, I-53, I-72, I-75, I-417, I-532, I-578, I-785, I-854, I-877, III-49, V-49, XII-49, XIV-26, XIV-49, XV-26, XVI-26, XVII-26, XXIV-2, XXIV-46, XXIV-90, XXIV-93, XXIV-94, XXV-2, XXV-26, XXV-49 and XXV-68.

[2] = test system: Spodoptera littoralis (Egyptian Cotton Leafworm); assay: Spodoptera littoralis cotton leaf disc spray test; details: foliar, 72 h, 200 ppm sprayed on cotton leaf discs, 5 L1 larvae, mortality, repellent effect, feeding behaviour, growth regulation 3 days after treatment
Source text: Spodoptera littoralis (Egyptian Cotton Leafworm)
Cotton leaf discs were placed on agar in a 24-well microtiter plate and sprayed with test solutions at an application rate of 200 ppm. After drying, the leaf discs were infested with 5 L1 larvae. The samples were checked for mortality, repellent effect, feeding behaviour, and growth regulation 3 days after treatment (DAT). The following compounds gave at least 80% control of Spodoptera littoralis: • I-3, I-26, I-29, I-30, I-49, I-52, I-53, I-75, I-417, I-532, I-578, I-785, I-854, I-877, II-49, III-49, V-49, XII-49, XIV-26, XV-26, XXIV-2, XXIV-46, XXIV-90, XXIV-93, XXIV-94, XXV-26 and XXV-49.

[3] = test system: Aedes aegypti (Yellow Fever Mosquito); assay: Aedes aegypti larvae test in microtiter plates; details: 48 h, larvae (L2) with nutrition mixture, mortality and growth inhibition 2 days later
Source text: 10-15 Aedes larvae (L2) together with a nutrition mixture are placed in 96-well microtiter plates. Test solutions at an application rate of 2 ppm are pipetted into the wells. 2 days later, insects were checked for mortality and growth inhibition. The following compounds gave at least 80% control of Aedes aegypti • I-3, I-26, I-29, I-30, I-49, I-52, I-53, I-72, I-75, I-76, III-49, III-118, XIV-26, XV-26, XXIV-2, XXIV-46, XXIV-90, XXIV-93, XXIV-94 and XXV-68.

[4] = test system: Myzus persicae (Green Peach Aphid); assay: Myzus persicae sunflower leaf disc spray test; details: foliar, 144 h, 200 ppm sprayed on sunflower leaf discs, aphid population of mixed ages, mortality after 6 DAT
Method: Sunflower leaf discs were placed on agar in a 24-well microtiter plate and sprayed with test solutions at an application rate of 200 ppm. After drying, the leaf discs were infested with an aphid population of mixed ages. After an incubation period of 6 DAT, samples were checked for mortality. The following compounds gave at least 80% control of Myzus persicae: • I-3, I-26, I-29, […], I-30, I-49, I-52, I-53, I-72, I-75, III-49, V-49, XXIV-46, XXIV-90 and XXIV-94.

O=C(Nc1ccccc1N1CCN(C/C=C/c2ccc(Cl)cc2)CC1)c1ccnc(Cl)c1 [Compound I-3, 2-chloro-N-(2-{4-[(E)-3-(4-chloro-phenyl)-allyl]-piperazin-1-yl}-phenyl)-isonicotinamide]
≥ 80%: pest or weed control at 200 ppm [1] | pest or weed control at 200 ppm [2] | pest or weed control at 2 ppm [3] | pest or weed control at 200 ppm [4]

O=C(Nc1ccccc1N1CCN(C/C=C/c2ccc(C(F)(F)F)cc2)CC1)c1ccnc(Cl)c1 [Compound I-6, 2-chloro-N-(2-{4-[(E)-3-(4-trifluoromethyl-phenyl)-allyl]-piperazin-1-yl}-phenyl)-isonicotinamide]
≥ 80%: pest or weed control at 200 ppm [1]

O=C(Nc1ccccc1N1CCN(C/C=C/c2ccc(OC(F)(F)F)cc2)CC1)c1ccnc(Cl)c1 [Compound I-7, 2-chloro-N-(2-{4-[(E)-3-(4-trifluoromethoxy-phenyl)-allyl]-piperazin-1-yl}-phenyl)-isonicotinamide]
≥ 80%: pest or weed control at 200 ppm [1]

O=C(Nc1ccc(F)cc1N1CCN(C/C=C/c2ccc(Cl)cc2)CC1)c1ccnc(Cl)c1 [Compound I-26, 2-chloro-N-(4-fluoro-2-{4-[(E)-3-(4-chloro-phenyl)-allyl]-piperazin-1-yl}-phenyl)-isonicotinamide]
≥ 80%: pest or weed control at 200 ppm [1] | pest or weed control at 200 ppm [2] | pest or weed control at 2 ppm [3] | pest or weed control at 200 ppm [4]

O=C(Nc1ccc(F)cc1N1CCN(C/C=C/c2ccc(C(F)(F)F)cc2)CC1)c1ccnc(Cl)c1 [Compound I-29, 2-chloro-N-(4-fluoro-2-{4-[(E)-3-(4-trifluoromethyl-phenyl)-allyl]-piperazin-1-yl}-phenyl)-isonicotinamide]
≥ 80%: pest or weed control at 200 ppm [1] | pest or weed control at 200 ppm [2] | pest or weed control at 2 ppm [3] | pest or weed control at 200 ppm [4]

O=C(Nc1ccc(F)cc1N1CCN(C/C=C/c2ccc(OC(F)(F)F)cc2)CC1)c1ccnc(Cl)c1 [Compound I-30, 2-chloro-N-(4-fluoro-2-{4-[(E)-3-(4-trifluoromethoxy-phenyl)-allyl]-piperazin-1-yl}-phenyl)-isonicotinamide]
≥ 80%: pest or weed control at 200 ppm [1] | pest or weed control at 200 ppm [2] | pest or weed control at 2 ppm [3] | pest or weed control at 200 ppm [4]

O=C(Nc1ccc(Cl)cc1N1CCN(Cc2ccc(Cl)cc2)CC1)c1ccnc(Cl)c1 [Compound I-47, 2-Chloro-N-{4-chloro-2-[4-(4-chloro-benzyl)-piperazin-1-yl}-phenyl)-isonicotinamide]
≥ 80%: pest or weed control at 200 ppm [1]

O=C(Nc1ccc(Cl)cc1N1CCN(C/C=C/c2ccc(Cl)cc2)CC1)c1ccnc(Cl)c1 [Compound I-49, 2-chloro-N-(4-chloro-2-{4-[(E)-3-(4-chloro-phenyl)-allyl]-piperazin-1-yl}-phenyl)-isonicotinamide]
≥ 80%: pest or weed control at 200 ppm [1] | pest or weed control at 200 ppm [2] | pest or weed control at 2 ppm [3] | pest or weed control at 200 ppm [4]

O=C(Nc1ccc(Cl)cc1N1CCN(C/C=C/c2ccc(C(F)(F)F)cc2)CC1)c1ccnc(Cl)c1 [Compound I-52, 2-chloro-N-(4-chloro-2-{4-[(E)-3-(4-trifluoromethyl-phenyl)-allyl]-piperazin-1-yl}-phenyl)-isonicotinamide]
≥ 80%: pest or weed control at 200 ppm [1] | pest or weed control at 200 ppm [2] | pest or weed control at 2 ppm [3] | pest or weed control at 200 ppm [4]

O=C(Nc1ccc(Cl)cc1N1CCN(C/C=C/c2ccc(OC(F)(F)F)cc2)CC1)c1ccnc(Cl)c1 [Compound I-53, 2-chloro-N-(4-chloro-2-{4-[(E)-3-(4-trifluoromethoxy-phenyl)-allyl]-piperazin-1-yl}-phenyl)-isonicotinamide]
≥ 80%: pest or weed control at 200 ppm [1] | pest or weed control at 200 ppm [2] | pest or weed control at 2 ppm [3] | pest or weed control at 200 ppm [4]

O=C(Nc1cc(F)ccc1N1CCN(C/C=C/c2ccc(Cl)cc2)CC1)c1ccnc(Cl)c1 [Compound I-72, 2-chloro-N-(5-fluoro-2-{4-[(E)-3-(4-chloro-phenyl)-allyl]-piperazin-1-yl}-phenyl)-isonicotinamide]
≥ 80%: pest or weed control at 200 ppm [1] | pest or weed control at 2 ppm [3] | pest or weed control at 200 ppm [4]

O=C(Nc1cc(F)ccc1N1CCN(C/C=C/c2ccc(C(F)(F)F)cc2)CC1)c1ccnc(Cl)c1 [Compound I-75, 2-chloro-N-(5-fluoro-2-{4-[(E)-3-(4-trifluoromethyl-phenyl)-allyl]-piperazin-1-yl}-phenyl)-isonicotinamide]
≥ 80%: pest or weed control at 200 ppm [1] | pest or weed control at 200 ppm [2] | pest or weed control at 2 ppm [3] | pest or weed control at 200 ppm [4]

O=C(Nc1cc(F)ccc1N1CCN(C/C=C/c2ccc(OC(F)(F)F)cc2)CC1)c1ccnc(Cl)c1 [Compound I-76, 2-chloro-N-(5-fluoro-2-{4-[(E)-3-(4-trifluoromethoxy-phenyl)-allyl]-piperazin-1-yl)-phenyl)-isonicotinamide]
≥ 80%: pest or weed control at 2 ppm [3]

O=C(Nc1cccnc1N1CCN(C/C=C/c2ccc(Cl)cc2)CC1)c1ccnc(Cl)c1 [XXIV-2, 2-chloro-N-(2-{4-[(E)-3-(4-chloro-phenyl)-allyl]-piperazin-1-yl}-pyridin-3-yl)-isonicotinamide]
≥ 80%: pest or weed control at 200 ppm [1] | pest or weed control at 200 ppm [2] | pest or weed control at 2 ppm [3]

O=C(Nc1ccc(Cl)nc1N1CCN(C/C=C/c2ccc(Cl)cc2)CC1)c1ccnc(Cl)c1 [XXIV-46, 2-chloro-N-(6-chloro-2-{4-[(E)-3-(4-chloro-phenyl)-allyl]-piperazin-1-yl}-pyridin-3-yl)-isonicotinamide]
≥ 80%: pest or weed control at 200 ppm [1] | pest or weed control at 200 ppm [2] | pest or weed control at 2 ppm [3] | pest or weed control at 200 ppm [4]

O=C(Nc1cc(Cl)cnc1N1CCN(C/C=C/c2ccc(Cl)cc2)CC1)c1ccnc(Cl)c1 [XXIV-90, 2-chloro-N-(5-chloro-2-{4-[(E)-3-(4-chloro-phenyl)-allyl]-piperazin-1-yl}-pyridin-3-yl)-isonicotinamide]
≥ 80%: pest or weed control at 200 ppm [1] | pest or weed control at 200 ppm [2] | pest or weed control at 2 ppm [3] | pest or weed control at 200 ppm [4]

O=C(Nc1cc(Cl)cnc1N1CCN(C/C=C/c2ccc(C(F)(F)F)cc2)CC1)c1ccnc(Cl)c1 [XXIV-93, 2-chloro-N-(5-chloro-2-{4-[(E)-3-(4-trifluoromethyl-phenyl)-allyl]-piperazin-1-yl}-pyridin-3-yl)-isonicotinamide]
≥ 80%: pest or weed control at 200 ppm [1] | pest or weed control at 200 ppm [2] | pest or weed control at 2 ppm [3]

O=C(Nc1cc(Cl)cnc1N1CCN(C/C=C/c2ccc(OC(F)(F)F)cc2)CC1)c1ccnc(Cl)c1 [XXIV-94, 2-chloro-N-(5-chloro-2-{4-[(E)-3-(4-trifluoromethoxy-phenyl)-allyl]-piperazin-1-yl}-pyridin-3-yl)-isonicotinamide]
≥ 80%: pest or weed control at 200 ppm [1] | pest or weed control at 200 ppm [2] | pest or weed control at 2 ppm [3] | pest or weed control at 200 ppm [4]
